Patent publication US11267925B2, “Water-based polyurethane dispersions and their preparation” (Dow Global Technologies LLC, priority 2017, dated 2022)

Columns and labels:
[1] = Solubility of DMPA in solvents and solvent blends (mixed on shaker, appearance observed); format: physicochemical; conditions: for affinity in terms of solubility toward DMPA: neat solvent, weight ratio solvent:DMPA 9:1, room temperature (23° C.), FIG. 2
Method: At room temperature (23° C.), 1 gram (g) of DMPA and 9 g solvent are added into a glass bottle and mixed on a shaker for 30 minutes. After shaking, the appearance of the mixture in each bottle is observed for solubility. The solvent is either neat dialkyl amide or a blend of dialkyl amide with PROGLYDE™ DMM dipropylene glycol dimethyl ether. Blends are prepared in three blend ratios: 2:1, 1:1, and 1:2 ether:dialkyl amide.
At room temperature (23° C.), 1 g DMPA and various weights of solvent are added into a glass bottle, then mixed for 30 minutes before checking the appearance.
(§1) The vapor pressures versus temperature profiles of neat PROGLYDE™ DMM dipropylene glycol dimethyl ether, neat N,N-DMPA, and of three different blends of dipropylene glycol dimethyl ether and N,N-DMPA containing 83 wt %, 55 wt %, and 35 wt % dipropylene glycol dimethyl ether respectively are measured in an ebulliometer in the 5-760 millimeters of mercury (mmHg) pressure range by ASTM E1719 to obtain Antoine constants and the normal boiling points of pure components and blends. Pseudo-azeotropes and actual minimum boiling azeotropes are indicated by a normal boiling point which is lower than the boiling point of either of the neat components. The solubility of DMPA in these blends is also evaluated at 25° C. at the DMPA:solvent blend ratio of 1:9. The composition of the blends is detailed in Table 1 below: […]

[2] = Vapor pressure versus temperature profiles and normal boiling points in ebulliometer (ASTM E1719); format: physicochemical
Method: as §1

affinity in terms of solubility toward DMPA [1] | solubility of DMPA in N,N-DMPA at different weight ratios ([1]; dialkyl amide to DMPA 3:1 to 8:1, 23° C., FIG. 4) | normal boiling point [2] [°C] | Compound
good affinity toward DMPA |  |  | CCN(CC)C(C)=O [N,N-DEAC, N,N-diethylacetamide]
good affinity toward DMPA | can dissolve DMPA effectively | 175.186 | CCC(=O)N(C)C [N,N-DMPA, N,N-dimethylpropionamide]
 |  | 174.931 | COCC(C)OCC(C)OC (stereo not drawn) [dipropylene glycol dimethyl ether, reference compound]

Compound | affinity in terms of solubility toward DMPA [1] | solubility of DMPA in N,N-DMPA at different weight ratios ([1]; dialkyl amide to DMPA 3:1 to 8:1, 23° C., FIG. 4) | normal boiling point [2] [°C]
COCCC(=O)N(C)C [M3-N,N-DMPA, 3-methoxy-N,N-dimethyl propionamide] | good affinity toward DMPA |  | 
